In US20260232578A1, “COMPOSITIONS AND METHODS FOR TRANSMUCOSAL ABSORPTION” (Tonix Pharma Limited, priority 2012, published 2026):
“And” between values parts separate entries of the source, which are not always exact repeats. Equal entries are not always repeated. Where two headings read alike, the source gives them in different places.

Legend:
histamine H1 receptor = molecular target: T1, histamine H1 receptor (Homo sapiens, UniProt P35367); test: Equilibrium receptor binding, recombinant human receptor; settings: for Ki: H1
T1 construct: expressed in transfected cells
T1 sequence (P35367 whole entry): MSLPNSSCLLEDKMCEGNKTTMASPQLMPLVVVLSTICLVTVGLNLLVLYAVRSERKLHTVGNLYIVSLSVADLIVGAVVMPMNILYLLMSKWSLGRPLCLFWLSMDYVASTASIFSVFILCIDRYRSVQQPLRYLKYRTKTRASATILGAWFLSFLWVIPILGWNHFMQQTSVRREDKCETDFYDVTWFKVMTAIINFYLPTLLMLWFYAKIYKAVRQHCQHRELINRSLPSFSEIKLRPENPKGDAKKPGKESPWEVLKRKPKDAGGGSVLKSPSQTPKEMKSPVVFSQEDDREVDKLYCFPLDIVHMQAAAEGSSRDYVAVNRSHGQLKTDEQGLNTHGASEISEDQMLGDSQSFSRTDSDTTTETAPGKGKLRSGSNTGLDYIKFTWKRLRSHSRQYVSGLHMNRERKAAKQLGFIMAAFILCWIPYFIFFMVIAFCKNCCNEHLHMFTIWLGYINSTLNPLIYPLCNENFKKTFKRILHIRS

clinical [1] = settings: human, in vivo, po, 5 mg
Procedure: The conditions used were as follows:
Quantitation was based on peak area ratio of the analytes versus their stable labeled internal standards. A weighted (1/C2), linear regression was performed to determine the concentration of the analytes. All regressions and figures presented in this validation report were generated by MDS Sciex Analyst version 1.4.2 and Thermo Electron Corporation Watson LIMS software, version 7.0.0.01b. […] Select receptors were analyzed in ligand-induced intracellular calcium mobilization.

in vivo = settings: beagle, dog
Procedure: Each dog was sampled at pre-dose before and after Propofol (when possible) and at 5, 10 and 20 minutes post-dose.

[2] = Pharmacokinetics of sublingual cyclobenzaprine HCl tablets with and without K2HPO4 (Example 10); format: in vivo, beagle dog; settings: 2.4 mg sublingual tablet with basifying agent
Procedure: Pharmacokinetic parameters were then calculated and compared.
For sublingual dosing, dogs were given propofol and were put in a lying position (ventral decubitis). The mouth was gently opened and the tablet was placed under the tongue. The tongue was then immediately replaced in its initial position and the mouth was closed. The dog was left in the same position until waking. […] After the washout period of two weeks, dogs were sedated in the same way and given a single sublingual dose of the formulation without basifying agent. Blood samples after both types of treatment were taken pre-dose and at 5, 10, 20, 30, and 45 minutes, and at 1, 2, 3, 4, 6, 8, and 10 hours after dose administration. Blood was taken from the jugular vein.
The method involved liquid-liquid extraction with hexane. The extracts were injected using an HPLC system and an API4000® (Applied Biosystems) for MS/MS detection, with an “Onyx monolithic Phenomenex C18 100×3.0 mm” column.
Sublingual administration was performed by placing the control tablet or tablet with K2HPO4 under the tongue when female beagles were slightly anesthetized with propofol.

clinical [3] = settings: human, in vivo, 2.4 mg
Procedure: Treatment A: A single dose of one TNX-102 2.4 mg SL tablet (with phosphate). Subjects were asked to keep the tablet under the tongue until dissolved and not to crush or chew it. Subjects were asked not to drink any water until at least 1 hour after dosing.
Treatment B: A single dose of one TNX-102-A 2.4 mg SL tablet (without phosphate). Subjects were asked to keep the tablet under the tongue until dissolved and not to crush or chew it. Subjects were asked not to drink any water until at least 1 hour after dosing.
Treatment C: A single dose of two TNX-102 2.4 mg SL tablets (with phosphate). Subjects will be asked to keep the tablets under the tongue until dissolved and not to crush or chew them. Subjects were asked not to drink any water until at least 1 hour after dosing.
Subjects were asked to swallow the administered tablet whole and not to crush or chew it.
Partial AUC at different times were calculated to examine the effect of sublingual administration on absorption.

[4] = humans, cited from earlier work
[5] = cited from earlier work
[6] = humans, cited from earlier work; remark: listed apart in the source
muscarinic M1 receptor = molecular target: T2, muscarinic M1 receptor (Homo sapiens, UniProt P11229)
T2 sequence (P11229 1-460): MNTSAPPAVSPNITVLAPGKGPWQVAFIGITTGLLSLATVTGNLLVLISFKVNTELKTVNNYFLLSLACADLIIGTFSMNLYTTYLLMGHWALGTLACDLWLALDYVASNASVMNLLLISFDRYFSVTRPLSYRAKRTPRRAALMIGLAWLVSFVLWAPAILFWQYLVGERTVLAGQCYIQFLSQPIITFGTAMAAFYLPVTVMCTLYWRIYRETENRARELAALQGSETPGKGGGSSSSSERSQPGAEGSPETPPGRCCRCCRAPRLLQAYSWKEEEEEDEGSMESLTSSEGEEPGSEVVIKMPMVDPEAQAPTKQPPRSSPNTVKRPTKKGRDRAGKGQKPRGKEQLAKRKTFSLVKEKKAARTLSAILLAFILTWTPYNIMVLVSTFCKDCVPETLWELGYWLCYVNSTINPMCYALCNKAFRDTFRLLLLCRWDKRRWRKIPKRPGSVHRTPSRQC

muscarinic M2 receptor [7] = molecular target: T3, muscarinic M2 receptor (Homo sapiens, UniProt P08172); test: Equilibrium receptor binding, recombinant human receptor; design: expressed in transfected cells
T3 sequence (P08172 whole entry): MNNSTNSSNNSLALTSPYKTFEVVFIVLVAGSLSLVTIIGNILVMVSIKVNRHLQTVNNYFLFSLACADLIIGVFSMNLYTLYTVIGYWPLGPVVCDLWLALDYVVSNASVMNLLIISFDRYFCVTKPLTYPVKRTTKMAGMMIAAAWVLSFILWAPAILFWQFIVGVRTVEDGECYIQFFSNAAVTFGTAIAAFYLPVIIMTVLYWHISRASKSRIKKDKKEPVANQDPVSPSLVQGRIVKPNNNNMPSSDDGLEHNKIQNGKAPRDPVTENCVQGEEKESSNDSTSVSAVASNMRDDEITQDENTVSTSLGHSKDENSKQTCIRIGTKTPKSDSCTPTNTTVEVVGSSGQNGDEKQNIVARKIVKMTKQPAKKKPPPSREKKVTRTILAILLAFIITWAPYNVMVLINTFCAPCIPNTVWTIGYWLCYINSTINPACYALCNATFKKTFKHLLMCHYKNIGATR

muscarinic M2 receptor [8] = molecular target: T3, muscarinic M2 receptor; test: G-protein-dependent signal transduction, intracellular Ca2+ mobilization
[9] = 2.5 mg immediate release tablets (Winchell)
[10] = 5.0 mg immediate release tablets (Winchell)
[11] = 10 mg immediate release tablets (Winchell)

CN(C)CCC=C1c2ccccc2C=Cc2ccccc21 [cyclobenzaprine, 3-(5H-dibenzo[a,d]cyclohepten-5-ylidene)-N,N-dimethyl-1-propanamine]
Ki (histamine H1 receptor): 1.3 nM
AUC(0-t) (clinical [1]): 92.2 ± 29.9 ng·h/mL
bioavailability, sublingual vs IV calculated in the same condition (in vivo): about 200%
dbmnAUC0-0.75 h ([2]; Beagles 12.5 kg): 0.000708 kg·h/mL
dnAUC0-0.75 h ([2]; Beagles): 5.65e-05 h/mL
AUC(0-inf) (clinical [3]): ~61 ng·h/mL
Cmax (clinical [3]): ~2.74 ng/mL
AUC(0-t) (clinical [3]; AUC0-20min): ~0.04 ng·h/mL
AUC(0-t) (clinical [3]; AUC0-30min): ~0.13 ng·h/mL
AUC(0-t) (clinical [3]; AUC0-45min): ~0.33 ng·h/mL
AUC(0-t) (clinical [3]; AUC0-1 h): ~0.61 ng·h/mL
AUC(0-t) (clinical [3]; AUC0-2 h): ~2.1 ng·h/mL
AUC(0-t) (clinical [3]; AUC0-3 h): ~3.93 ng·h/mL
AUC(0-t) (clinical [3]; AUC0-4 h): ~6.27 ng·h/mL
AUC(0-t) (clinical [3]; AUC0-5.5 h): ~10.1 ng·h/mL
AUC(0-t) (clinical [3]; AUC0-6 h): ~11.3 ng·h/mL
AUC(0-t) (clinical [3]; AUC0-8 h): ~15.1 ng·h/mL
AUC(0-t) (clinical [3]; AUC0-12 h): ~50.3 ng·h/mL
AUC(0-t) (clinical [3]; AUC0-[…] (second mention, after AUC0-[…])): ~8.81 ng·h/mL
AUC0-8 h [4, 9]: 11.1 ng·h/mL
AUC0-∞h [4, 9]: 44.2 ng·h/mL
AUC0-8 h [4, 10]: 23.0 ng·h/mL
AUC0-∞h [4, 10]: 89.5 ng·h/mL
AUC0-8 h [4, 11]: 45.9 ng·h/mL
AUC0-∞h [4, 11]: 178.2 ng·h/mL
plasma level (radioactive equivalents) ([5]; Beagles, 1.76 mg/kg by mouth, 1 hr (Hucker)): 1.14 μg/ml [equivalent]
plasma level (radioactive equivalents) ([5]; Beagles, 1.76 mg/kg by mouth, 2 hr (Hucker)): 1.46 μg/ml [equivalent]
plasma level (radioactive equivalents) ([5]; Beagles, 1.76 mg/kg by mouth, 4 hr (Hucker)): 0.92 μg/ml [equivalent]
plasma level (radioactive equivalents) ([5]; Beagles, 1.76 mg/kg by mouth, 6 hr (Hucker)): 0.58 μg/ml [equivalent]
plasma level (radioactive equivalents) ([5]; Beagles, 1.76 mg/kg by mouth, 24 hr (Hucker)): 0.10 μg/ml [equivalent]
plasma level (radioactive equivalents) ([5]; Beagles, 1.76 mg/kg cyclobenzaprine HCl by mouth, 0.5 h (Hucker)): 0.72 μg/ml [equivalent]
plasma level, Hucker dose adjusted for 0.14 mg/kg ([5]; IV (saline), t 0.5 h): 34.1 ng/mL
plasma level, Hucker dose adjusted for 0.14 mg/kg ([5]; IV (saline), t 1 h): 42.1 ng/mL
plasma level, Hucker dose adjusted for 0.14 mg/kg ([5]; IV (saline), t 2 h): 47.6 ng/mL
plasma level, Hucker dose adjusted for 0.14 mg/kg ([5]; IV (saline), t 4 h): 43.7 ng/mL
plasma level, Hucker dose adjusted for 0.14 mg/kg ([5]; IV (saline), t 6 h): 35.7 ng/mL
plasma level, Hucker dose adjusted for 0.14 mg/kg ([5]; IV (saline), t 24 h): 9.5 ng/mL
plasma level, Hucker dose adjusted for 0.14 mg/kg ([5]; PO (gelatin capsule), t 0.5 h): 57.1 ng/mL
plasma level, Hucker dose adjusted for 0.14 mg/kg ([5]; PO (gelatin capsule), t 1 h): 90.5 ng/mL
plasma level, Hucker dose adjusted for 0.14 mg/kg ([5]; PO (gelatin capsule), t 2 h): 115.9 ng/mL
plasma level, Hucker dose adjusted for 0.14 mg/kg ([5]; PO (gelatin capsule), t 4 h): 73.0 ng/mL
plasma level, Hucker dose adjusted for 0.14 mg/kg ([5]; PO (gelatin capsule), t 6 h): 46.0 ng/mL
plasma level, Hucker dose adjusted for 0.14 mg/kg ([5]; PO (gelatin capsule), t 24 h): 7.9 ng/mL
plasma level (radioactive equivalents) ([5]; dogs, 2 mg/kg intravenous in saline, 0.5 h (Hucker)): 0.43 μg/ml [equivalent]
plasma level (radioactive equivalents) ([5]; dogs, 2 mg/kg intravenous in saline, 1 hr (Hucker)): 0.53 μg/ml [equivalent]
plasma level (radioactive equivalents) ([5]; dogs, 2 mg/kg intravenous in saline, 2 hr (Hucker)): 0.60 μg/ml [equivalent]
plasma level (radioactive equivalents) ([5]; dogs, 2 mg/kg intravenous in saline, 4 hr (Hucker)): 0.55 μg/ml [equivalent]
plasma level (radioactive equivalents) ([5]; dogs, 2 mg/kg intravenous in saline, 6 hr (Hucker)): 0.45 μg/ml [equivalent]
plasma level (radioactive equivalents) ([5]; dogs, 2 mg/kg intravenous in saline, 24 hr (Hucker)): 0.12 μg/ml [equivalent]
upper limit for the half-life of the first phase (distribution out of plasma) ([6]; IV bolus): 3 to 5 min
amount in plasma as % of the theoretical initial concentration (Cinit) ([6]; within 3 to 30 minutes after IV bolus): less than 5%

CNCCC=C1c2ccccc2C=Cc2ccccc21 [norcyclobenzaprine, 3-(5H-dibenzo[a,d]cyclohepten-5-ylidene)-N-methyl-1-propanamine]
Hill plot ratio (Hill slope) (histamine H1 receptor): 1.04
Ki (histamine H1 receptor): 5.6 nM and 5.9 nM
Hill plot ratio (Hill slope) (muscarinic M1 receptor): 0.70
Ki (muscarinic M2 receptor [7]): 76 nM
IC50 (muscarinic M2 receptor [8]): 33 nM
